Laboratory results from the CheMixHub ionic liquid set.

Test: xn = mol fraction of the nth substance listed
Settings: for electrical conductivity: frequency 0.00293 MHz

CCC[NH3+].O=[N+]([O-])[O-] + CC[NH3+].O=[N+]([O-])[O-]
101 kPa, x2 = 0.5
Settings | electrical conductivity [S/m] | viscosity [mPa·s]
293.15 K | 1.2 | 64.5
303.15 K | 1.67 | 44.1
318.15 K | 2.53 | 27.1
353.15 K | – | 11.5

CCCCCC[n+]1ccn(C)c1.F[B-](F)(F)F + CC[n+]1ccn(C)c1.F[B-](F)(F)F
101 kPa
Settings | viscosity [mPa·s]
298.15 K, x2 = 0 | 211
298.15 K, x2 = 0.4061 | 111.8
298.15 K, x2 = 0.793 | 53.76
299.15 K, x2 = 0 | 198.1
299.15 K, x2 = 0.1196 | 162.2
299.15 K, x2 = 0.1803 | 148.6
299.15 K, x2 = 0.3145 | 121.9
299.15 K, x2 = 0.4938 | 91.2
299.15 K, x2 = 0.6006 | 74.7
299.15 K, x2 = 0.793 | 51.53
299.15 K, x2 = 0.9022 | 41.62
301.15 K, x2 = 0.0545 | 155.3
301.15 K, x2 = 0.1803 | 132.9
301.15 K, x2 = 0.8516 | 42.79
301.15 K, x2 = 0.9022 | 38.54
302.15 K, x2 = 0 | 167.2
302.15 K, x2 = 0.1196 | 137.4
302.15 K, x2 = 0.8516 | 41.13
302.15 K, x2 = 0.9022 | 37.08
303.15 K, x2 = 0.5526 | 68.4
303.15 K, x2 = 0.6006 | 62.29
303.15 K, x2 = 0.7059 | 51.99
303.15 K, x2 = 0.793 | 43.73
304.15 K, x2 = 0.7059 | 49.86
304.15 K, x2 = 0.9022 | 34.46
305.15 K, x2 = 0.3145 | 89.6
305.15 K, x2 = 0.4938 | 68.4
305.15 K, x2 = 0.6006 | 57.12
305.15 K, x2 = 0.793 | 40.44
305.15 K, x2 = 0.9022 | 33.23
307.15 K, x2 = 0.793 | 37.44
307.15 K, x2 = 0.9022 | 30.96
308.15 K, x2 = 0.3145 | 77.6
308.15 K, x2 = 0.4938 | 59.86
308.15 K, x2 = 0.6006 | 50.38
308.15 K, x2 = 0.793 | 36.05
308.15 K, x2 = 0.9022 | 29.94

CC(C)=O + CC[n+]1ccn(C)c1C.F[B-](F)(F)F
101.3 kPa, x2 = 0
Settings | viscosity [mPa·s]
293.15 K | 0.325
298.15 K | 0.303
303.15 K | 0.297
308.15 K | 0.283
313.15 K | 0.269
318.15 K | 0.251
323.15 K | 0.244

COCCOCCO + CCCC[n+]1ccn(C)c1.F[P-](F)(F)(F)(F)F
100 kPa
Settings | viscosity [mPa·s]
283.15 K, x2 = 0.05331 | 7.5
283.15 K, x2 = 0.09804 | 9.72
283.15 K, x2 = 0.19 | 15.75
283.15 K, x2 = 0.2921 | 25.91
283.15 K, x2 = 0.384 | 39.17
283.15 K, x2 = 0.4556 | 57.5
283.15 K, x2 = 0.5782 | 97.4
283.15 K, x2 = 0.6754 | 141.2
283.15 K, x2 = 0.7826 | 218.3
283.15 K, x2 = 0.8947 | 394
283.15 K, x2 = 0.9428 | 522
293.15 K, x2 = 0.04991 | 5.319
293.15 K, x2 = 0.09685 | 6.745
293.15 K, x2 = 0.1962 | 10.81
293.15 K, x2 = 0.291 | 16.42
293.15 K, x2 = 0.4 | 25.65
293.15 K, x2 = 0.5144 | 42.34
293.15 K, x2 = 0.5864 | 52.18
293.15 K, x2 = 0.673 | 67.5
293.15 K, x2 = 0.7866 | 103.1
293.15 K, x2 = 0.8943 | 187.6
293.15 K, x2 = 0.945 | 239.3
303.15 K, x2 = 0.05183 | 4.124
303.15 K, x2 = 0.09655 | 5.063
303.15 K, x2 = 0.1884 | 7.095
303.15 K, x2 = 0.2922 | 11.15
303.15 K, x2 = 0.3935 | 16.31
303.15 K, x2 = 0.5055 | 26.04
303.15 K, x2 = 0.5816 | 33.29
303.15 K, x2 = 0.6785 | 45.05
303.15 K, x2 = 0.7725 | 63.3
303.15 K, x2 = 0.9022 | 113.3
303.15 K, x2 = 0.9392 | 142.8
313.15 K, x2 = 0.04989 | 3.16
313.15 K, x2 = 0.09747 | 3.842
313.15 K, x2 = 0.1914 | 5.61
313.15 K, x2 = 0.2888 | 8.03
313.15 K, x2 = 0.3854 | 11.32
313.15 K, x2 = 0.4724 | 15.18
313.15 K, x2 = 0.5945 | 23.13
313.15 K, x2 = 0.6785 | 31.11
313.15 K, x2 = 0.7835 | 46.19
313.15 K, x2 = 0.8966 | 73.1
313.15 K, x2 = 0.9583 | 96.7
